From ChEMBL document CHEMBL2016519, “A comparative study of backbone versus side chain peptide cyclization: application for HIV-1 integrase inhibitors” (Bioorg Med Chem, 2012)
Active and inactive are the calls of the source. No cut-off for these calls is given here. Starred links: 1 amine or outer side, 2 acyl side, 3 side chain; linkers in the order of their positions; H or OH if unused. Positions of bridges follow the written chain, without caps; N, C: chain ends. Non-standard residues stand in square brackets, D forms with d. Residues, ends and D or L forms follow the SMILES beside them. ξ: configuration not given here. X1 = NC(CC(=O)[*:1])C(=O)[*:2]; ξOrn = NCCCC(N)C(=O)O; Nlys = NCCCCNCC(=O)O; ξK = NCCCCC(N)C(=O)O

Columns and labels:
[1] = Stability in trypsin and chymotrypsin extract assessed as duration showing initiation of compound degradation at 37 degC by mass spectrometry; assay type: ADME
[2] = test system: Human immunodeficiency virus 1; assay: Inhibition of His-tagged HIV-1 integrase C56S, W131D, F185K and […] mutant at 20 uM by fluorescence anisotropy
[3] = test system: Human immunodeficiency virus 1; assay: Antiviral activity against wild type HIV1 infected in human H9 cells assessed as p24 protein expression pre-incubated with cells for 2 hrs at 12.5 uM measured after 6 days post infection using multiple dose study wherein additional dose was added every 2 days; assay type: functional; conditions: for inhibition at 12.5 µM: Human immunodeficiency virus 1, H9
[4] = test system: Human immunodeficiency virus 1; assay: Antiviral activity against wild type HIV1 infected in human H9 cells assessed as p24 protein expression pre-incubated with cells for 2 hrs at 12.5 uM measured after 8 days post infection using single dose study; assay type: functional; conditions: for inhibition at 12.5 µM: Human immunodeficiency virus 1, H9
[5] = test system: Human immunodeficiency virus 1; assay: Antiviral activity against wild type HIV1 infected in human H9 cells assessed as p24 protein expression pre-incubated with cells for 2 hrs at 12.5 uM measured after 6 days post infection using single dose study; assay type: functional; conditions: for inhibition at 12.5 µM: Human immunodeficiency virus 1, H9
[6] = Binding affinity to His-tagged HIV-1 integrase C56S, W131D, F185K and […] mutant by fluorescence anisotropy; parameters: species or system Human immunodeficiency virus 1
[7] = test system: Human immunodeficiency virus 1; assay: Antiviral activity against wild type HIV1 infected in human H9 cells assessed as p24 protein expression pre-incubated with cells for 2 hrs at 12.5 uM measured after 8 days post infection using multiple dose study wherein additional dose was added every 2 days; assay type: functional; conditions: for inhibition at 12.5 µM: Human immunodeficiency virus 1, H9

Compound	Stability [1]	inhibition [2]	inhibition [3]	inhibition at 12.5 µM [4]	inhibition at 12.5 µM [5]	Kd [6]	inhibition [7]	inhibition at 12.5 µM [3]	inhibition at 12.5 µM [7]	inhibition [4]	inhibition [5]
CC[C@H](C)[C@@H]1NC(=O)[C@H](CCCCN)NC(=O)[C@H](CC(C)C)NC(=O)[C@H](CO)NC(=O)[C@H](CC(N)=O)NC(=O)[C@H](Cc2c[nH]c3ccccc23)NC(=O)CC(N)C(=O)NCCCCN(CC(N)=O)C(=O)[C@H](C(C)C)NC(=O)[C@H](CC(=O)O)NC(=O)[C@H](CC(C)C)NC(=O)[C@H](CC(N)=O)NC(=O)[C@H](CC(=O)O)NC1=O (stereo partly drawn) (WNSLKIDNLDV[Nlys]-NH2; linker N-12 via X1)	150 min	90%	Active	90%	90%	5 µM	Active	–	–	–	–
CC[C@H](C)[C@@H]1NC(=O)[C@H](CCCCN)NC(=O)[C@H](CC(C)C)NC(=O)[C@H](CO)NC(=O)[C@H](CC(N)=O)NC(=O)[C@H](Cc2c[nH]c3ccccc23)NC(=O)CC(N)C(=O)NCCCCC(C(N)=O)NC(=O)[C@H](C(C)C)NC(=O)[C@H](CC(=O)O)NC(=O)[C@H](CC(C)C)NC(=O)[C@H](CC(N)=O)NC(=O)[C@H](CC(=O)O)NC1=O (stereo partly drawn) (WNSLKIDNLDV[ξK]-NH2; linker N-12 via X1)	150 min	55%	–	65%	80%	2.5 µM	–	85%	85%	–	–
CC[C@H](C)[C@@H]1NC(=O)[C@H](CCCCN)NC(=O)[C@H](CC(C)C)NC(=O)[C@H](CO)NC(=O)[C@H](CC(N)=O)NC(=O)[C@H](Cc2c[nH]c3ccccc23)NC(=O)CC(N)C(=O)NCCCC(C(N)=O)NC(=O)[C@H](C(C)C)NC(=O)[C@H](CC(=O)O)NC(=O)[C@H](CC(C)C)NC(=O)[C@H](CC(N)=O)NC(=O)[C@H](CC(=O)O)NC1=O (stereo partly drawn) (WNSLKIDNLDV[ξOrn]-NH2; linker N-12 via X1)	150 min	50%	–	25%	25%	2 µM	–	40%	40%	–	–
H-WNSLKIDNLDV-OH	30 min	83%	Active	–	–	5.1 µM	Active	–	–	inactive	inactive
